{"source": "PubChem BioAssay AID463229", "about": "(Broad Institute, 2010)", "note": "Several values for one entry are separate records, joined by “and”; a condition that tells them apart may be missing. Identical values can stand only once. Activity calls are given as the source filed them.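 Rule for the calls: active = compounds raising the signal whose fitted half-maximal concentration is at or below their top tested dose (cut at about 25 µM in these data); inconclusive = flat fit at 30 to 70% activity, or a poor fit; inactive = the rest.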"}
{"system": "INS-1E rat beta cells, no cytokines, CellTiter-Glo ATP, 48 h", "test": "cytokine-free beta-cell viability effect – INS-1E rat cells, ATP luminescence, cherry pick, counter-screen for beta-cell apoptosis protection project, dose response (AID 463229)"}
{"smiles": "COc1ccc(C(=O)c2c(C(F)(F)F)oc3c2C(=O)c2ccccc2C3=O)cc1", "AC50": "6.74 µM"}
{"smiles": "CCCCCCn1c(=O)c(C(=O)Nc2ncccc2C)c(O)c2ccccc21", "AC50": "5.5 µM"}
{"smiles": "CCN1CCN(Cc2ccc(NC(=O)c3ccc(C)c(NC(=O)C(=O)c4c[nH]c5ccccc45)c3)cc2C(F)(F)F)CC1", "AC50": "13.8 µM and 7.23 µM"}
{"smiles": "C/C(=N\\NC(=O)c1cc(Br)ccc1O)c1ccccn1", "AC50": "7.82 µM"}
{"smiles": "Nc1c(Cl)ncnc1N/N=C/c1ccccn1", "AC50": "2.07 µM"}
{"smiles": "COc1ccc(C)cc1Nc1n[n+](-c2ccccc2)c(-c2c(Cl)cccc2Cl)s1", "AC50": "4.15 µM"}
{"smiles": "CN1/C(=C\\C(=O)COC(=O)c2ccc(O)c(O)c2)C(C)(C)c2ccccc21", "AC50": "10.1 µM"}
{"smiles": "CN(C)c1cc[n+](Cc2c(Cl)cccc2Cl)cc1", "AC50": "6.3 µM"}
{"smiles": "CCOC(=O)c1c(C)[nH]c(C(=O)OCC(=O)NC(C)(C)C)c1C", "AC50": "13.1 µM"}
{"smiles": "N=c1c2c(-c3ccccc3)c(-c3ccccc3)n(Cc3ccco3)c2ncn1Cc1ccccc1", "AC50": "7.01 µM"}
{"smiles": "CCOC(=O)N1CCN(c2ncnc3c2[nH]c2ccc(F)cc23)CC1", "AC50": "6.43 µM"}
{"smiles": "Cc1cccc(Cn2nnc3c2C(=O)c2ccccc2C3=O)c1", "AC50": "10.5 µM"}
{"smiles": "O=C(OCCOc1cccc(Cl)c1)c1cc(S(=O)(=O)N2CCCCC2)ccc1N1CCOCC1", "AC50": "7.78 µM"}
{"smiles": "O=C(Nc1ccc(Cl)c(Cl)c1)Nc1nnc(CC2=CCCCC2)s1", "AC50": "5.75 µM"}
{"smiles": "CC(C)OCCCNc1ncnc2c1[nH]c1ccccc12", "AC50": "4.34 µM"}
{"smiles": "CC[C@@]1(O)C(=O)OCc2c1cc1n(c2=O)Cc2cc3c(N)cccc3nc2-1", "AC50": "< 0.195 µM"}
{"smiles": "Cc1cccc(C(=O)Nc2ccc(C(=O)/C=C/c3cccnc3)cc2)c1", "AC50": "7.53 µM"}
{"smiles": "CCc1c(C)nc2ncnn2c1NCCc1ccc(OC)cc1", "AC50": "6.85 µM"}
{"smiles": "Oc1[nH]c2ccc(Br)cc2c1N=NC(=S)N1CCOCC1", "AC50": "2.39 µM"}
{"smiles": "CC(=O)N1CCc2cc(S(=O)(=O)NCCC3=CCCCC3)ccc21", "AC50": "7.63 µM"}
{"smiles": "CC(C)(C)C(=O)Nc1ccc(C(=O)N/N=C/c2ccccc2OC(=O)c2ccc(Cl)cc2)cc1", "AC50": "11.8 µM"}
{"smiles": "CCC(=O)NC(c1cc(Cl)c2cccnc2c1O)C1CC1", "note": "(centres undefined)", "AC50": "6.34 µM"}
{"smiles": "Cc1ccc(-c2ccc(/C=C3\\C(=O)ON=C3c3ccccc3)o2)c([N+](=O)[O-])c1", "AC50": "6.77 µM"}
{"smiles": "O=c1[nH]c(=O)n(-c2ccc(F)cc2)c2c1C(C(F)(F)F)(C(F)(F)F)N=C(c1ccc(F)cc1)N2", "AC50": "6.05 µM"}
{"smiles": "CC1=C(CO)C(=O)OC([C@@H](C)C2CC[C@H]3C4C[C@H]5O[C@]56[C@@H](O)C=CC(=O)[C@]6(C)C4CC[C@]23C)C1", "note": "(some centres undefined)", "AC50": "6.2 µM"}
{"smiles": "CC(C)(C)c1cc([N+](=O)[O-])cc(C(C)(C)C)c1O", "AC50": "2.8 µM"}
{"smiles": "CCN(CC)S(=O)(=O)c1ccc(NC(=O)Nc2cccc(C(F)(F)F)c2)cc1", "AC50": "8.02 µM"}
{"smiles": "Cc1ccc(C(=O)N/C(=C\\c2ccc(-c3ccc(Cl)cc3)o2)C(=O)NCCCN(C)C)cc1", "AC50": "10.9 µM"}
{"smiles": "Oc1ccc(COCc2ccccc2)c2cccnc12", "AC50": "4.28 µM"}
{"smiles": "COc1cccc(CN(C)C(=O)c2cc(COc3ccc4ncccc4c3)on2)c1", "AC50": "6.86 µM"}
{"smiles": "CCCC[n+]1ccn(C2=C([O-])c3ccccc3C(=O)/C2=N\\S(=O)(=O)c2ccc(Cl)cc2)c1", "AC50": "15.8 µM"}
{"smiles": "O=C1C(Cl)=C(NCCN2CCCCC2)C(=O)c2ccccc21", "AC50": "14.1 µM"}
{"smiles": "CCC(CNc1cc(OC)cc2cccnc12)NC1CCCCC1", "note": "(centres undefined)", "AC50": "> 26 µM (inactive)"}
{"smiles": "C/C(=N\\NC(=O)C(C)n1nc(C)c([N+](=O)[O-])c1C)c1ccccc1O", "note": "(centres undefined)", "AC50": "12.5 µM"}
{"smiles": "Cc1cc(N2CCN(C)CC2)ccc1NC(=O)c1c2c(nc3ccccc13)CCN(Cc1ccccc1)C2", "AC50": "8 µM"}
{"smiles": "COc1ccc(CNc2ncnc3sccc23)cc1", "AC50": "11.3 µM"}
{"smiles": "CC(C)Nc1ccc(Nc2ccnc3cc4ccccc4cc23)cc1", "AC50": "7.2 µM"}
{"smiles": "CCC(=NNC(=O)c1ccc2c(c1)nc(C)n2CC)c1cc(F)ccc1O", "AC50": "9.84 µM"}
{"smiles": "CCn1c(=O)c([N+](=O)[O-])c(Cl)c2ccccc21", "AC50": "7.4 µM"}
{"smiles": "CN(C)c1nc(N/N=C/c2ccccc2O)nc(Nc2ccc(F)cc2)n1", "AC50": "11.3 µM"}
{"smiles": "CNC[C@H](Cc1ccccc1)NC[C@@H](Cc1cccc2ccccc12)NCCc1ccc(C)cc1", "AC50": "7.64 µM"}
{"smiles": "O=C(Nc1ccc(OCC(F)(F)C(F)F)c(C(F)(F)F)c1)c1ccccc1O", "AC50": "6.48 µM"}
{"smiles": "COc1cc([N+](=O)[O-])cc(/C=N/NC(=O)c2cc(-c3ccccc3)nc3ccccc23)c1O", "AC50": "9.5 µM"}
{"smiles": "CN(C)CCCN(C(=O)c1ccc(S(=O)(=O)N(C)Cc2ccccc2)cc1)c1nc2cc3c(cc2s1)OCO3", "AC50": "15.9 µM"}
{"smiles": "CC(=O)NC(c1ccco1)c1cc(F)c2cccnc2c1O", "note": "(centres undefined)", "AC50": "10.6 µM"}
{"smiles": "N#Cc1ccc(NC(=O)Nc2ccc(Cl)cc2)cc1", "AC50": "6.57 µM"}
{"smiles": "COc1ccc(-c2nc3ccc(C)cn3c2NCc2ccccc2)cc1SC1CCCCC1", "AC50": "2.34 µM"}
{"smiles": "CCCCCCCCCCOC(=O)Cn1c(COc2ccc(C)cc2)[n+](C)c2ccccc21", "AC50": "4 µM"}
{"smiles": "C#CCOCCOCCOCCNc1nc(N2CCN(C(=O)CCCCCCCCCCNC(=O)[C@H]([C@@H](C)CC)n3cc(CCCCCN)nn3)CC2)nc(N2CCN(C(=O)CCCCCCCCCCNC(=O)[C@H]([C@@H](C)CC)n3cc(CCCCN=C(N)N)nn3)CC2)n1", "AC50": "6.72 µM"}
{"smiles": "CC(=O)N(C)C1=C(N2CCOCC2)C(=O)c2ccccc2C1=O", "AC50": "7.91 µM"}
{"smiles": "C/C(=N/NC(=O)c1cccs1)c1c(C)[nH]n(-c2nc3ccccc3s2)c1=O", "AC50": "16.2 µM"}
{"smiles": "O=C(Cc1cccs1)N/N=C\\c1ccc([N+](=O)[O-])s1", "AC50": "7.04 µM"}
{"smiles": "COc1cnc(-c2ccccn2)nc1Oc1ccc(Cl)c2ccccc12", "AC50": "15.3 µM"}
{"smiles": "CN(C)S(=O)(=O)c1cccc(NC(=S)N/N=C/c2cc(Br)ccc2O)c1", "AC50": "2.72 µM"}
{"smiles": "O=C(N/N=C/c1cccnc1)c1ccc(NC(=O)C(c2ccccc2)c2ccccc2)cc1", "AC50": "0.848 µM"}
{"smiles": "Brc1ccc(CN2CCN(Cc3c[nH]c4ccccc34)CC2)cc1", "AC50": "6.91 µM"}
{"smiles": "CCOC(=O)N1CCN(S(=O)(=O)c2ccc(C(=O)NNc3nc4cc(C)cc(C)c4s3)cc2)CC1", "AC50": "6.01 µM"}
{"smiles": "Cc1ccc(C(=O)C[n+]2cc(-c3ccc(C)cc3)n3c2CCCCC3)cc1", "AC50": "1.4 µM"}
{"smiles": "Cc1ccc(NC2=C/C(=N\\S(=O)(=O)c3cccs3)c3ccccc3C2=O)c(C)c1", "AC50": "1.88 µM"}
{"smiles": "Cc1nc(NCCc2ccc(S(N)(=O)=O)cc2)c2c(C)c(C)sc2n1", "AC50": "6.2 µM"}
{"smiles": "NC(N)=N/N=C/c1ccc(N(c2ccccc2)c2ccccc2)cc1", "AC50": "7.36 µM"}
{"smiles": "CCCC(=O)NC(c1cccs1)c1cc(Cl)c2cccnc2c1O", "note": "(centres undefined)", "AC50": "5.67 µM"}
{"smiles": "CN1CCN(C(c2ccc(C(F)(F)F)cc2)c2ccc3cccnc3c2O)CC1", "note": "(centres undefined)", "AC50": "4.56 µM"}
{"smiles": "COc1ccc(C)cc1Nc1n[n+](-c2ccccc2)c(-c2ccc(N(C)C)cc2)s1", "AC50": "2.9 µM"}
{"smiles": "Cc1ccc(-c2c[n+](Cc3ccc(Cl)cc3)c3n2CCC3)cc1", "AC50": "7.79 µM"}
{"smiles": "O=[N+]([O-])c1ccc(N2CCN(C(=S)NCc3ccc(Cl)cc3)CC2)cc1", "AC50": "10.3 µM"}
{"smiles": "Brc1ccccc1CN1CCN(Cc2c[nH]c3ccccc23)CC1", "AC50": "2.76 µM"}
{"smiles": "CC(=O)C1=NN(c2ccccc2)C(c2cccs2)N1c1ccc(N(C)C)cc1", "note": "(centres undefined)", "AC50": "3.56 µM"}
{"smiles": "C#CCOCCOCCOCCNc1nc(N2CCN(C(=O)CCCCCCCCCCNC(=O)[C@H]([C@@H](C)CC)n3cc(CCCCCN)nn3)CC2)nc(N2CCN(C(=O)CCCCCCCCCCNC(=O)[C@@H]([C@H](C)O)n3cc(C)nn3)CC2)n1", "AC50": "6.55 µM"}
{"smiles": "COc1ccc(N(C(=O)CCl)C(C(=O)NCCc2ccccc2)c2cccs2)cc1Cl", "note": "(centres undefined)", "AC50": "7.56 µM"}
{"smiles": "CCN(CC)c1ccc(/C=N/NC(=S)NCc2ccccc2)c(O)c1", "AC50": "12.3 µM"}
{"smiles": "COc1cc(SC)ccc1C(=O)Nc1nc2ccccc2[nH]1", "AC50": "1.21 µM"}
{"smiles": "COc1cc(NC(=O)c2[nH]cnc2C(N)=O)cc(C(=O)Nc2cccc(C(F)(F)F)c2)c1", "AC50": "5.21 µM"}
{"smiles": "Cc1ccccc1OCCn1c(C)nc2ccccc21", "AC50": "15.2 µM"}
